Assay results as given in DBAASP.
≈ marks a conversion by molar mass, not a printed value. Where “and” joins values, the source holds several entries; their conditions need not be identical. Equal entries are not always repeated.

Legend:
Test in all cases: ≥ marks a high value that may be exact or a test limit, other limits are often not marked, values filed in µg/mL are converted to µM
[1] = test system: Escherichia coli ATCC 25922
[2] = test system: Staphylococcus aureus ATCC 25923
[3] = test system: Pseudomonas aeruginosa ATCC 27853
[4] = test system: Staphylococcus aureus
[5] = test system: Escherichia coli

Structure (SMILES)	MIC [1]	MIC [2] [µM]	other results
CC(C)[C@H](NC(=O)[C@H](CC(=O)O)NC(=O)[C@H](CO)NC(=O)[C@H](CCCCN)NC(=O)CNC(=O)[C@H](CO)NC(=O)[C@H](CO)NC(=O)[C@H](Cc1cnc[nH]1)NC(=O)[C@H](CCC(N)=O)NC(=O)[C@@H](N)CCC(=O)O)C(N)=O [EQHSSGKSDV]	> 100 µM	> 100	MIC [3]: > 100 µM
CC[C@H](C)[C@H](NC(=O)[C@H](CCSC)NC(=O)[C@H](CCCN=C(N)N)NC(=O)CNC(=O)[C@H](C)NC(=O)[C@H](Cc1cnc[nH]1)NC(=O)[C@H](Cc1ccccc1)NC(=O)[C@H](CC(C)C)NC(=O)CNC(=O)[C@H](CCCCN)NC(=O)[C@@H](NC(=O)[C@@H](NC(=O)[C@H](Cc1cnc[nH]1)NC(=O)[C@H](Cc1ccccc1)NC(=O)[C@H](Cc1ccccc1)NC(=O)[C@@H](N)Cc1ccccc1)[C@@H](C)CC)[C@@H](C)CC)C(=O)N[C@@H](Cc1cnc[nH]1)C(=O)NCC(=O)N[C@@H](CC(C)C)C(=O)N[C@H](C(=O)O)C(C)C [FFFHIIKGLFHAGRMIHGLV]	–	–	MIC [3]: 32 µM (≈ 74.9 µg/mL)
CC[C@H](C)[C@H](NC(=O)[C@H](CCCCN)NC(=O)[C@@H]1CCCN1C(=O)[C@H](CC(C)C)NC(=O)[C@H](Cc1ccccc1)NC(=O)[C@H](CC(N)=O)NC(=O)[C@H](C)NC(=O)[C@H](C)NC(=O)[C@@H]1CSSC[C@H](NC(=O)[C@H](CC(C)C)NC(=O)CNC(=O)[C@H](C)NC(=O)[C@H](CC(C)C)NC(=O)[C@H](CC(C)C)NC(=O)[C@@H]2CCCN2C(=O)[C@H](CC(C)C)NC(=O)[C@@H](N)Cc2ccccc2)C(=O)N[C@@H](CCCCN)C(=O)N[C@@H]([C@@H](C)CC)C(=O)N[C@@H]([C@@H](C)O)C(=O)N[C@@H](CCCN=C(N)N)C(=O)N[C@@H](CCCCN)C(=O)N1)C(=O)N[C@@H](Cc1ccccc1)C(=O)O [FLPLLAGLCKITRKCAANFLPKIF]	–	–	MIC [4]: 1.5 µM (≈ 4.01 µg/mL); MIC [5]: 7 µM (≈ 18.7 µg/mL)
CC[C@H](C)[C@H](NC(=O)[C@H](CC(C)C)NC(=O)[C@H](C)NC(=O)[C@H](Cc1ccccc1)NC(=O)[C@H](Cc1ccccc1)NC(=O)CN)C(=O)N[C@@H](C)C(=O)N[C@@H](CCCCN)C(=O)N[C@H](C(=O)N[C@H](C(=O)N[C@@H](CO)C(=O)N[C@@H](CO)C(=O)N1CCC[C@H]1C(=O)N[C@@H](CC(C)C)C(=O)N[C@@H](Cc1ccccc1)C(=O)N[C@@H](CCCCN)C(=O)N[C@H](C(=O)N[C@@H](CC(C)C)C(N)=O)[C@@H](C)O)[C@@H](C)CC)[C@@H](C)CC [GFFALIAKIISSPLFKTL]	–	–	MIC [5]: 20.3 µM (≈ 40 µg/mL)
CC[C@H](C)[C@H](NC(=O)[C@H](CO)NC(=O)[C@H](C)NC(=O)[C@H](CC(C)C)NC(=O)CNC(=O)[C@H](C)NC(=O)[C@H](CCCCN)NC(=O)[C@H](C)NC(=O)[C@H](Cc1ccccc1)NC(=O)[C@H](CCCCN)NC(=O)[C@H](CCCCN)NC(=O)[C@H](CC(C)C)NC(=O)CNC(=O)[C@H](CCC(=O)O)NC(=O)[C@H](C)NC(=O)[C@H](C)NC(=O)[C@@H](NC(=O)[C@@H](NC(=O)[C@H](Cc1c[nH]c2ccccc12)NC(=O)[C@H](Cc1ccccc1)NC(=O)CN)[C@@H](C)O)[C@@H](C)O)C(=O)N[C@@H](CC(C)C)C(=O)N[C@@H](CC(N)=O)C(=O)N1CCC[C@H]1C(=O)N[C@@H](CCCCN)C(=O)O [GFWTTAAEGLKKFAKAGLASILNPK]	–	–	MIC [4]: > 80 µM; MIC [5]: 80 µM (≈ 210 µg/mL)
CC[C@H](C)[C@H](NC(=O)CN)C(=O)N[C@@H](CC(C)C)C(=O)N[C@@H](CO)C(=O)N[C@@H](CC(N)=O)C(=O)N[C@H](C(=O)N[C@@H](CC(C)C)C(=O)NCC(=O)N[C@@H](CCSC)C(=O)NCC(=O)N[C@@H](CCCCN)C(=O)N[C@@H](CCCCN)C(=O)N[C@H](C(=O)N[C@H](C(=O)N[C@H]1CSSC[C@@H](C(=O)O)NC(=O)[C@H](CC(C)C)NC(=O)CNC(=O)[C@H](CO)NC(=O)[C@H](CC(C)C)NC(=O)CNC1=O)C(C)C)[C@@H](C)CC)C(C)C [GILSNVLGMGKKIVCGLSGLC]	–	–	MIC [4]: > 100 µM; MIC [5]: 70 µM (≈ 144 µg/mL)
CC[C@H](C)[C@H](NC(=O)CN)C(=O)N[C@@H](CCCN=C(N)N)C(=O)N[C@@H](CC(=O)O)C(=O)N[C@H](C(=O)N[C@@H](CC(C)C)C(=O)N[C@@H](CCCCN)C(=O)NCC(=O)N[C@@H](C)C(=O)N[C@@H](C)C(=O)N[C@@H](CCCCN)C(=O)N[C@@H](C)C(=O)N[C@@H](Cc1ccccc1)C(=O)N[C@H](C(=O)N[C@@H](CCCCN)C(=O)N[C@H](C(=O)N[C@H](C(=O)N[C@@H](C)C(=O)NCC(=O)N[C@@H](Cc1cnc[nH]1)C(=O)N[C@H](C(=O)N[C@@H](C)C(=O)N[C@@H](CC(N)=O)C(N)=O)[C@@H](C)CC)C(C)C)[C@@H](C)O)C(C)C)C(C)C [GIRDVLKGAAKAFVKTVAGHIAN]	4 µM (≈ 9.34 µg/mL)	–	–
CC[C@H](C)[C@H](NC(=O)[C@H](CCCCN)NC(=O)[C@H](CCCCN)NC(=O)[C@@H](NC(=O)[C@@H](NC(=O)[C@H](CC(=O)O)NC(=O)[C@H](Cc1ccccc1)NC(=O)[C@H](CC(C)C)NC(=O)CN)[C@@H](C)CC)[C@@H](C)CC)C(=O)N[C@@H](Cc1c[nH]c2ccccc12)C(=O)N[C@@H](CCC(=O)O)C(=O)N[C@@H](CO)C(=O)N[C@@H](Cc1ccccc1)C(N)=O [GLFDIIKKIWESF]	> 125 µM	–	MIC [3]: > 125 µM
CC[C@H](C)[C@H](NC(=O)[C@H](C)NC(=O)CNC(=O)[C@H](C)NC(=O)[C@H](CCCCN)NC(=O)[C@H](CO)NC(=O)[C@H](C)NC(=O)[C@H](CCSC)NC(=O)CN)C(=O)N[C@@H](C)C(=O)NCC(=O)N[C@@H](CCCCN)C(=O)N[C@H](C(=O)N[C@@H](C)C(=O)N[C@@H](CCCCN)C(=O)N[C@H](C(=O)N[C@@H](C)C(=O)N[C@@H](Cc1c[nH]c2ccccc12)C(=O)N[C@@H](CCCCN)C(=O)N[C@@H](C)C(=O)N[C@@H](CC(C)C)C(N)=O)C(C)C)[C@@H](C)CC [GMASKAGAIAGKIAKVAWKAL]	8.87 µM (≈ 18.1 µg/mL)	–	–
CC[C@H](C)[C@H](N)C(=O)N[C@H](C(=O)N[C@@H](CCCCN)C(=O)N[C@@H](CCCCN)C(=O)N[C@@H](Cc1ccccc1)C(=O)N[C@@H](CC(C)C)C(=O)N[C@@H](Cc1cnc[nH]1)C(=O)N[C@@H](CO)C(=O)N[C@H](C(=O)N[C@@H](Cc1c[nH]c2ccccc12)C(=O)N[C@@H](CCCCN)C(=O)N[C@@H](Cc1ccccc1)C(=O)NCC(=O)N[C@@H](CCCCN)C(=O)N[C@@H](C)C(=O)N[C@@H](Cc1ccccc1)C(=O)N[C@H](C(=O)NCC(=O)N[C@@H](CCC(=O)O)C(=O)N[C@H](C(=O)N[C@@H](CCSC)C(=O)N[C@@H](CC(N)=O)C(=O)N[C@H](C(=O)O)[C@@H](C)CC)[C@@H](C)CC)C(C)C)[C@@H](C)CC)[C@@H](C)CC [IIKKFLHSIWKFGKAFVGEIMNI]	2 µM (≈ 5.44 µg/mL)	–	–
CC[C@H](C)[C@H](NC(=O)CNC(=O)[C@H](CO)NC(=O)[C@H](CCCN=C(N)N)NC(=O)[C@@H](NC(=O)CNC(=O)[C@H](Cc1c[nH]c2ccccc12)NC(=O)[C@@H](N)CC(C)C)[C@@H](C)O)C(=O)N[C@@H](CCC(N)=O)C(=O)N1CCC[C@H]1C(N)=O [LWGTRSGIQP]	> 100 µM	> 100	MIC [3]: > 100 µM
CC[C@H](C)[C@H](NC(=O)[C@H](Cc1cnc[nH]1)NC(=O)[C@H](CCCN=C(N)N)NC(=O)[C@H](Cc1c[nH]c2ccccc12)NC(=O)[C@@H](NC(=O)[C@H](CCCN=C(N)N)NC(=O)[C@H](CCCCN)NC(=O)[C@H](C)NC(=O)CNC(=O)[C@H](CCCN=C(N)N)NC(=O)[C@H](CCSC)NC(=O)[C@H](C)NC(=O)[C@@H](N)CC(N)=O)C(C)C)C(N)=O [NAMRGAKRVWRHI]	44.3 µM and 62.7 µM	–	–
CC(C)[C@H](N)C(=O)N[C@H]1CSSC[C@@H](C(=O)N[C@H](C(=O)NCC(=O)N[C@@H](CCCN=C(N)N)C(=O)O)C(C)C)NC(=O)[C@H](C(C)C)NC(=O)[C@@H]2CSSC[C@H](NC(=O)[C@H](Cc3ccc(O)cc3)NC1=O)C(=O)N[C@@H](CCCN=C(N)N)C(=O)N[C@@H](CCCN=C(N)N)C(=O)N[C@@H](CCCN=C(N)N)C(=O)N[C@@H](Cc1ccccc1)C(=O)N2 [VCYCRRRFCVCVGR]	–	–	MIC [5]: 0.349 µM (≈ 0.599 µg/mL)
NC(=O)[C@H](Cc1c[nH]c2ccccc12)NC(=O)[C@H](CCCN=C(N)N)NC(=O)[C@H](CCCN=C(N)N)NC(=O)[C@@H](N)Cc1c[nH]c2ccccc12 [WRRW]	> 285 µM	285 (≈ 200 µg/mL)	–
NC(=O)[C@H](Cc1ccc(O)cc1)NC(=O)[C@H](CCCN=C(N)N)NC(=O)[C@H](Cc1c[nH]c2ccccc12)NC(=O)[C@H](CCCN=C(N)N)NC(=O)[C@@H](N)Cc1c[nH]c2ccccc12 [WRWRY]	115 µM (≈ 99.9 µg/mL)	57.7 (≈ 49.9 µg/mL)	–

Further lines, with some results ahead:

MIC [1]	MIC [2] [µM]	Structure (SMILES)	other results
> 36.9 µM	> 36.9	CC(C)C[C@H](NC(=O)[C@H](CC(C)C)NC(=O)[C@@H](NC(=O)[C@H](CCCCN)NC(=O)[C@H](C)NC(=O)[C@H](CCCN=C(N)N)NC(=O)[C@H](CCCCN)NC(=O)[C@H](CC(C)C)NC(=O)[C@H](CC(C)C)NC(=O)CN)[C@@H](C)O)C(N)=O [GLLKRAKTLL]	–
100 µM (≈ 111 µg/mL)	–	CC[C@H](C)[C@H](NC(=O)[C@H](CCCN=C(N)N)NC(=O)[C@H](CO)NC(=O)[C@H](CC(C)C)NC(=O)[C@H](CC(C)C)NC(=O)CN)C(=O)N[C@@H](CCCCN)C(=O)N[C@H](C(=O)N[C@@H](CC(C)C)C(=O)N[C@@H](CC(C)C)C(N)=O)[C@@H](C)O [GLLSRIKTLL]	–
2.47 µM (≈ 3 µg/mL)	5.75 (≈ 6.99 µg/mL)	CC[C@H](C)[C@H](NC(=O)[C@H](Cc1ccccc1)NC(=O)[C@H](CCCCN)NC(=O)[C@H](CC(C)C)NC(=O)[C@H](CC(C)C)NC(=O)[C@@H](N)CCCCN)C(=O)N[C@@H](CCCCN)C(=O)N[C@H](C(=O)N[C@@H](CC(C)C)C(=O)N[C@@H](CC(C)C)C(N)=O)[C@@H](C)O [KLLKFIKTLL]	–
1620 µM (≈ 1250 µg/mL)	809 (≈ 625 µg/mL)	CC(C)[C@H](NC(=O)[C@H](C)NC(=O)[C@@H](N)CCC(N)=O)C(=O)N[C@@H](CCC(=O)O)C(=O)N[C@@H](C)C(=O)N[C@@H](CCC(N)=O)C(=O)N[C@@H](CCCCN)C(=O)O [QAVEAQK]	–
32 µM (≈ 59.4 µg/mL)	–	CC(C)C[C@H](NC(=O)[C@H](Cc1ccccc1)NC(=O)[C@@H]1CCCN1C(=O)[C@H](Cc1c[nH]c2ccccc12)NC(=O)[C@H](Cc1ccc(O)cc1)NC(=O)[C@H](Cc1ccc(O)cc1)NC(=O)[C@@H]1CCCN1C(=O)[C@H](Cc1ccccc1)NC(=O)[C@H](CCCN=C(N)N)NC(=O)[C@H](CCCN=C(N)N)NC(=O)[C@@H](N)C(C)C)C(=O)N[C@@H](CCCN=C(N)N)C(=O)N[C@@H](CCCN=C(N)N)C(N)=O [VRRFPYYWPFLRR]	–
